Measurements taken from patent EP2271935B1, “METHOD AND KIT FOR THE EX VIVO EVALUATION OF THE RESPONSE OF A TUMOR TO CONDITIONS TO BE TESTED” (Universität Leipzig, priority 2008, dated 2009).
Read-outs that look alike come from different tables or passages of the source.

System: epithelial cell line KB (DSMZ ACC 136)
Experiment: MTT assay of proliferation under varied riboflavin content and light exposure
Format: cell-based, human
Text: To address this question, three media, a) the RPMI 1640 without riboflavin and phenol red that is used in the method according to the invention and was manufactured according to our specifications by Biochrom, as well as two different RPMI 1640 charges purchased from Invitrogen which were each containing 532 nmol/L riboflavin, b) a phenol red-free (Gibco 11835), and c) a conventional RPMI 1640 (Gibco 21875) with 13.284 µmol/L phenol red. All media were supplemented with 2 mmol/L L-alanyl-1-glutamine as stabilized glutamine source (Biochrom K0302 Lot 0755 S) and the same amount of 10% (v/v) of heat-inactivated fetal calf serum (FCS) that was purchased from Invitrogen (Lot 41Q7554K) with a yield of 198 nmol/L riboflavin. […] These medium concentrations define the riboflavin concentrations in controls (see below).
In addition to the influences exerted by the different types of media alone, the riboflavin-dependent impact on the outcome of the docetaxel treatment was investigated. For this purpose 100 µl/well of docetaxel dilutions containing threefold the concentration indicated were added into the wells of microwell plates. The following seven docetaxel concentrations were tested: 19.38, 38.75, 77.5, 155, 310, 620, and 1,240 pmol/L.
To examine photoactivation-dependent riboflavin-mediated effects disturbing the outcome of ex-vivo chemoresponse-evaluation by conventional cell culture medium, and in particular in the absence of flavin-protecting experimental conditions, varying amounts of riboflavin were added. A stock solution of 200 µM (-)-riboflavin (CAS 83-68-5, Sigma R9504, FW=376.37 g/mol, purity >99%, cell culture tested) in phosphate buffered saline was diluted to adjust in each case the highest final concentration in culture (this means: after completion of the assay by addition of the other two components to the final assay volume of 300 µL) to exactly 10 µmol/L. Serial log10-dilutions were made from this concentration in each corresponding medium. These gave final concentrations in cell culture of 10.000, 1.018, 0.12, and 0.03 µmol/L in the case of medium a) (the medium according to the method of the invention), and concentrations of 10.000, 1.449, 0.594, and 0.508 µmol/L using media b) and c).
In general, each combination of riboflavin and docetaxel were tested in duplicate, and controls without additional riboflavin in quadruplicate for each experimental setting in the same 96-well plate. The experimental conditions were as follows: For each of the used media, two different plates were prepared simultaneously and either handled completely under flavin-protecting conditions (illumination only by sodium discharge lamps with an emission wavelength of 589 nm [i]), or in the same bench (Thermo MSC 12) with the installed light inside their working chamber switched on. The dilution of docetaxel and those of riboflavin in the particular medium were prepared for all four plates of each medium type prior to the other working steps under flavin-protecting conditions. Thus the administrations of these dilutions took about 20 min either under flavin-protecting conditions or illuminated conditions. After completed preparation of the plates that thereafter contained 200 µL of both diluted compounds, the plates were incubated 2 h in the incubator to allow for adjustment of the appropriate pH.
In between the stock culture of KB was harvested by trypsination of a 3-days stock culture (exponential growth phase). Stock cultures of KB cells always were grown without any antibiotic or antimycotic in phenol red- and riboflavin-free RPMI 1640 supplemented with 10% (v/v) FCS and were adapted to this medium for more than five passages. They were always handled at room temperature or warmer and were never exposed to light other than the light of a sodium discharge lamp with an emission wavelength of 589 nm for at least five passages. […]

IC50 (Homo sapiens, Epithelial cell, 0.5 h, Plate No. 11; Riboflavin 508 nmol/L; medium c) conventional RPMI 1640 with phenol red, bench lighting <30 min, read-out: IC50 for docetaxel with reference to control with same riboflavin content): 0.284 nM
IC50 (Homo sapiens, Epithelial cell, 0.5 h, Plate No. 11; Riboflavin 594 nmol/L; medium c) conventional RPMI 1640 with phenol red, bench lighting <30 min, read-out: IC50 for docetaxel with reference to control with same riboflavin content): 0.233 nM
IC50 (Homo sapiens, Epithelial cell, 0.5 h, Plate No. 11; Riboflavin 1449 nmol/L; medium c) conventional RPMI 1640 with phenol red, bench lighting <30 min, read-out: IC50 for docetaxel with reference to control with same riboflavin content): 0.275 nM
IC50 (Homo sapiens, Epithelial cell, 0.5 h, Plate No. 11; Riboflavin 10000 nmol/L; medium c) conventional RPMI 1640 with phenol red, bench lighting <30 min, read-out: IC50 for docetaxel with reference to control with same riboflavin content): 0.247 nM
IC50 (Homo sapiens, Epithelial cell, 0.5 h, Plate No. 12; Riboflavin 499 nmol/L; medium c) conventional RPMI 1640 with phenol red, bench lighting <30 min, daylight 30 min, read-out: IC50 for docetaxel with reference to control with same riboflavin content): 0.339 nM
IC50 (Homo sapiens, Epithelial cell, 0.5 h, Plate No. 12; Riboflavin 508 nmol/L; medium c) conventional RPMI 1640 with phenol red, bench lighting <30 min, daylight 30 min, read-out: IC50 for docetaxel with reference to control with same riboflavin content): 0.239 nM
IC50 (Homo sapiens, Epithelial cell, 0.5 h, Plate No. 12; Riboflavin 594 nmol/L; medium c) conventional RPMI 1640 with phenol red, bench lighting <30 min, daylight 30 min, read-out: IC50 for docetaxel with reference to control with same riboflavin content): 0.2 nM
IC50 (Homo sapiens, Epithelial cell, 0.5 h, Plate No. 12; Riboflavin 1449 nmol/L; medium c) conventional RPMI 1640 with phenol red, bench lighting <30 min, daylight 30 min, read-out: IC50 for docetaxel with reference to control with same riboflavin content): 0.153 nM
IC50 (Homo sapiens, Epithelial cell, Plate No. 01; Riboflavin 20 nmol/L; medium a) RPMI 1640 without riboflavin and phenol red, flavin-protecting conditions, read-out: IC50 for docetaxel with reference to control with same riboflavin content): 0.209 nM
IC50 (Homo sapiens, Epithelial cell, Plate No. 01; Riboflavin 30 nmol/L; medium a) RPMI 1640 without riboflavin and phenol red, flavin-protecting conditions, read-out: IC50 for docetaxel with reference to control with same riboflavin content): 0.206 nM
IC50 (Homo sapiens, Epithelial cell, Plate No. 01; Riboflavin 120 nmol/L; medium a) RPMI 1640 without riboflavin and phenol red, flavin-protecting conditions, read-out: IC50 for docetaxel with reference to control with same riboflavin content): 0.23 nM
IC50 (Homo sapiens, Epithelial cell, Plate No. 01; Riboflavin 1018 nmol/L; medium a) RPMI 1640 without riboflavin and phenol red, flavin-protecting conditions, read-out: IC50 for docetaxel with reference to control with same riboflavin content): 0.222 nM
IC50 (Homo sapiens, Epithelial cell, Plate No. 01; Riboflavin 10000 nmol/L; medium a) RPMI 1640 without riboflavin and phenol red, flavin-protecting conditions, read-out: IC50 for docetaxel with reference to control with same riboflavin content): 0.257 nM
Structure (SMILES): CC(=O)O[C@@]12CO[C@@H]1C[C@H](O)[C@@]1(C)C(=O)[C@H](O)C3=C(C)[C@@H](OC(=O)[C@H](O)[C@@H](NC(=O)OC(C)(C)C)c4ccccc4)C[C@@](O)([C@@H](OC(=O)c4ccccc4)[C@H]21)C3(C)C [docetaxel]
IC50 (Homo sapiens, Epithelial cell, 0.5 h, Plate No. 11; Riboflavin 499 nmol/L; medium c), bench lighting <30 min, read-out: IC50 for docetaxel normalized to medium control of medium with same riboflavin content): 0.1 nM
IC50 (Homo sapiens, Epithelial cell, 0.5 h, Plate No. 11; Riboflavin 508 nmol/L; medium c), bench lighting <30 min, read-out: IC50 for docetaxel normalized to medium control of medium with same riboflavin content): 0.126 nM
IC50 (Homo sapiens, Epithelial cell, 0.5 h, Plate No. 11; Riboflavin 594 nmol/L; medium c), bench lighting <30 min, read-out: IC50 for docetaxel normalized to medium control of medium with same riboflavin content): 0.103 nM
IC50 (Homo sapiens, Epithelial cell, 0.5 h, Plate No. 11; Riboflavin 1449 nmol/L; medium c), bench lighting <30 min, read-out: IC50 for docetaxel normalized to medium control of medium with same riboflavin content): 0.122 nM
IC50 (Homo sapiens, Epithelial cell, 0.5 h, Plate No. 11; Riboflavin 10000 nmol/L; medium c), bench lighting <30 min, read-out: IC50 for docetaxel normalized to medium control of medium with same riboflavin content): 0.11 nM
IC50 (Homo sapiens, Epithelial cell, 0.5 h, Plate No. 12; Riboflavin 499 nmol/L; medium c), bench lighting <30 min, daylight 30 min, read-out: IC50 for docetaxel normalized to medium control of medium with same riboflavin content): 0.1 nM
IC50 (Homo sapiens, Epithelial cell, 0.5 h, Plate No. 12; Riboflavin 508 nmol/L; medium c), bench lighting <30 min, daylight 30 min, read-out: IC50 for docetaxel normalized to medium control of medium with same riboflavin content): 0.0705 nM
IC50 (Homo sapiens, Epithelial cell, 0.5 h, Plate No. 12; Riboflavin 594 nmol/L; medium c), bench lighting <30 min, daylight 30 min, read-out: IC50 for docetaxel normalized to medium control of medium with same riboflavin content): 0.0591 nM
IC50 (Homo sapiens, Epithelial cell, 0.5 h, Plate No. 12; Riboflavin 1449 nmol/L; medium c), bench lighting <30 min, daylight 30 min, read-out: IC50 for docetaxel normalized to medium control of medium with same riboflavin content): 0.045 nM
IC50 (Homo sapiens, Epithelial cell, Plate No. 01; Riboflavin 20 nmol/L; medium a), flavin-protecting conditions, read-out: IC50 for docetaxel normalized to medium control of medium with same riboflavin content): 0.1 nM
IC50 (Homo sapiens, Epithelial cell, Plate No. 01; Riboflavin 30 nmol/L; medium a), flavin-protecting conditions, read-out: IC50 for docetaxel normalized to medium control of medium with same riboflavin content): 0.0986 nM
IC50 (Homo sapiens, Epithelial cell, Plate No. 01; Riboflavin 120 nmol/L; medium a), flavin-protecting conditions, read-out: IC50 for docetaxel normalized to medium control of medium with same riboflavin content): 0.11 nM
IC50 (Homo sapiens, Epithelial cell, Plate No. 01; Riboflavin 1018 nmol/L; medium a), flavin-protecting conditions, read-out: IC50 for docetaxel normalized to medium control of medium with same riboflavin content): 0.106 nM
